In paper PMC6826492, “Experimental and Computational Study of the Antioxidative Potential of Novel Nitro and Amino Substituted Benzimidazole/Benzothiazole-2-Carboxamides with Antiproliferative Activity” (Antioxidants, 2019):
Where a name gives a salt, the structure may show the parent alone. Read-outs that look alike come from different tables or passages of the source.

How the values were obtained:
[1] = Ferric reducing/antioxidant power (FRAP assay); type: biochemical; design: key to FRAP: –: Very low activity; details: means ± standard deviation; absorbance at 593 nm
Protocol: The FRAP method was carried out according to previously described procedures with some modifications to be compatible with an assay on a 96-well microplate. All tests were done in triplicate, while the obtained results were averaged and reported as Fe^2+ equivalents (Fe^2+ µmol).
By using the FRAP assay, we investigated the reducing power of investigated systems, which was monitored by the corresponding changes in the absorbance at 593 nm. This method is based on the ability of systems to reduce the ferric tripyridyl triazine complex (TPTZ) to the ferrous state (Fe^2+), which can be seen by an intense blue color. […] Good reducing ability was shown by the trimethoxy substituted benzimidazole-2-carboxamide 14 bearing the amino group (1102.5 ± 14.1 mmolFe^2+/mmolC).

[2] = system: HCT 116 (colon carcinoma); experiment: Antiproliferative activity in vitro (MTT assay); type: cell-based, human; details: 72 h incubation, concentration that causes 50% growth inhibition, read-out: IC50 HCT116
Protocol: (§1) The experiments were performed on four human cell lines, including HCT 116 (colon carcinoma), H 460 (lung carcinoma), MCF-7 (breast carcinoma), and HEK 293 (human embryonic kidney cells), in line with previously published experimental procedures. Briefly, the cells were grown in DMEM medium with the addition of 10% fetal bovine serum (FBS), 2 mM L-glutamine, 100 U/mL penicillin, and 100 µg/mL streptomycin, and cultured as monolayers at 37 °C in a humidified atmosphere with 5% CO2. Cells were seeded at 2 × 10^3 cells/well in a standard 96-well microtiter plates and left to attach for 24 h. The next day, a test compound was added in five serial 10-fold dilutions. The rate of cell growth was evaluated after 72 h of incubation with MTT assays. The obtained results are expressed as IC50 values, calculated from the concentration-response curve using linear regression analysis by fitting the test concentrations that give PG values above and below the reference value (i.e., 50%). Each test was performed in quadruplicate in at least two individual experiments.

H 460 (lung carcinoma) = experiment: Antiproliferative activity in vitro (MTT assay); type: cell-based, human; details: 72 h incubation, concentration that causes 50% growth inhibition
Protocol: as §1

MCF-7 (breast carcinoma) = experiment: Antiproliferative activity in vitro (MTT assay); type: cell-based, human; details: 72 h incubation, concentration that causes 50% growth inhibition
Protocol: as §1

[3] = DPPH free radical scavenging; type: biochemical; design: key to DPPH IC50: –: Very low activity; details: after 30 min of incubation with 100 μM DPPH
Protocol: The reducing activity of investigated systems was achieved by the DPPH method according to previously described procedures with modifications to assure the use in a 96-well microplate. Briefly, equal volumes of various concentrations of tested molecules (dissolved in DMSO) were added to the solution of DPPH (final concentration 50 µM in absolute ethanol). Ethanol and DMSO were used as control solutions in line with earlier reports.

[4] = system: HEK 293 (human embryonic kidney cells); experiment: Cytotoxic activity on non-cancerous cells (MTT assay); type: cell-based; details: Homo sapiens, HEK293; non-tumor cell line; 72 h incubation, MTT; concentration that causes 50% growth inhibition
Protocol: as §1

Compound	FRAP [1]	IC50 ([2]; Homo sapiens, HCT-116, 72 h) [µM]	IC50 (H 460 (lung carcinoma); Homo sapiens, NCI-H460, 72 h) [µM]	IC50 (MCF-7 (breast carcinoma); Homo sapiens, MCF7, 72 h) [µM]	DPPH IC50 [3]	IC50 [4] [µM]	IC50 (MCF-7 (breast carcinoma)) [µM]	IC50 [3] [µM]	IC50 [2] [µM]	IC50 (H 460 (lung carcinoma)) [µM]
COc1ccccc1C(=O)Nc1nc2ccc([N+](=O)[O-])cc2[nH]1 [Compound 6, 2-methoxy-N-[5(6)-nitrobenzimidazol-2-yl]benzamide]	123.5 ± 2.8 mmolFe^2+/mmolC	6 ± 1	6 ± 5	4 ± 0.3	– ^c	3 ± 0.6				
COc1ccc(C(=O)Nc2nc3ccc([N+](=O)[O-])cc3[nH]2)c(OC)c1 [Compound 7, 2,4-dimethoxy-N-[5(6)-nitrobenzimidazol-2-yl]benzamide]	139.6 ± 16.9 mmolFe^2+/mmolC	3 ± 0.2	4 ± 2	2 ± 0.9	–	2 ± 0.3				
COc1ccccc1C(=O)Nc1nc2ccc([N+](=O)[O-])cc2s1 [Compound 9, 2-methoxy-N-(6-nitrobenzothiazol-2-yl)benzamide]	6.7 ± 0.6 mmolFe^2+/mmolC	44 ± 25	46 ± 3	9 ± 1	–					
COc1ccc(C(=O)Nc2nc3ccc([N+](=O)[O-])cc3s2)c(OC)c1 [Compound 10, 2,4-dimethoxy-N-(6-nitrobenzothiazol-2-yl)benzamide]	–	9 ± 7	20 ± 3	5 ± 2	–	5 ± 1				
COc1cc(C(=O)Nc2nc3ccc([N+](=O)[O-])cc3s2)cc(OC)c1OC [Compound 11, 3,4,5-trimethoxy-N-(6-nitrobenzothiazol-2-yl)benzamide]	155.5 ± 3.0 mmolFe^2+/mmolC	37 ± 0.8	23 ± 4	17 ± 9	–					
COc1ccccc1C(=O)Nc1nc2ccc(N)cc2[nH]1 [Compound 12, N-[5(6)-aminobenzimidazol-2-yl]-2-methoxybenzamide]	256.3 ± 2.8 mmolFe^2+/mmolC	48 ± 4	39 ± 11				53 ± 9	28.9 ± 1.03		
COc1ccc(C(=O)Nc2nc3ccc(N)cc3[nH]2)c(OC)c1 [Compound 13, N-[5(6)-aminobenzimidazol-2-yl]-2,4-dimethoxybenzamide]	238.4 ± 2.1 mmolFe^2+/mmolC			20 ± 4				17.7 ± 2.81	17 ± 8	24 ± 8
COc1ccccc1C(=O)Nc1nc2ccc(N)cc2s1 [Compound 15, N-(6-aminobenzothiazol-2-yl)-2-methoxybenzamide]	163.4 ± 4.7 mmolFe^2+/mmolC	6 ± 4	3 ± 0.9	3 ± 2	–					
COc1cc(C(=O)Nc2nc3ccc(N)cc3s2)cc(OC)c1OC [Compound 17, N-(6-aminobenzothiazol-2-yl)-3,4,5-trimethoxybenzamide]	235.4 ± 2.8 mmolFe^2+/mmolC	28 ± 4					5 ± 3	40.4 ± 0.4		≥ 100
COc1ccccc1C(=O)Nc1nc2ccc(N)cc2[nH]1 [Compound 18, N-[5(6)-aminobenzimidazol-2-yl]-2-methoxybenzamide hydrochloride]	267.2 ± 5.0 mmolFe^2+/mmolC						23 ± 2	9.85 ± 0.003	33 ± 7	36 ± 8
COc1ccc(C(=O)Nc2nc3ccc(N)cc3[nH]2)c(OC)c1 [Compound 19, N-[5(6)-aminobenzimidazol-2-yl]-2,4-dimethoxybenzamide hydrochloride]	259.1 ± 0.6 mmolFe^2+/mmolC						34 ± 24	13.3 ± 0.8	≥ 100	> 100
COc1cc(C(=O)Nc2nc3cc(N)ccc3[nH]2)cc(OC)c1OC.Cl [Compound 20, N-(6-aminobenzimidazol-2-yl)-3,4,5-trimethoxybenzamide hydrochloride]	267.4 ± 1.4 mmolFe^2+/mmolC	≥ 100	> 100	34 ± 30				8.06 ± 0.03		
COc1cc(C(=O)Nc2nc3ccc(N)cc3s2)cc(OC)c1OC.Cl [Compound 23, N-(6-aminobenzothiazol-2-yl)-3,4,5-trimethoxybenzamide hydrochloride]	241.3 ± 1.6 mmolFe^2+/mmolC							1.5 ± 0.5	50 ± 11	34 ± 9
O=C(Nc1nc2ccc([N+](=O)[O-])cc2[nH]1)c1ccccc1O [Compound 24, 2-hydroxy-N-[5(6)-nitrobenzimidazol-2-yl]benzamide]	39.1 ± 2.0 mmolFe^2+/mmolC	61 ± 0.1	42 ± 20	42 ± 7	–					
COc1ccc(C(=O)Nc2nc3ccc([N+](=O)[O-])cc3[nH]2)c(O)c1 [Compound 25, 2-hydroxy-4-methoxy-N-[5(6)-nitrobenzimidazol-2-yl]benzamide]	150.4 ± 3.4 mmolFe^2+/mmolC	31 ± 4	18 ± 0.01	28 ± 6	–					
Nc1ccc2nc(NC(=O)c3ccccc3O)[nH]c2c1 [Compound 30, N-[5(6)-aminobenzimidazol-2-yl]-2-hydroxybenzamide]	272.6 ± 7.1 mmolFe^2+/mmolC	46 ± 0.2	> 100	30 ± 0.8				42.5 ± 0.5		
COc1ccc(C(=O)Nc2nc3ccc(N)cc3[nH]2)c(O)c1 [Compound 31, N-[5(6)-aminobenzimidazol-2-yl]-2-hydroxy-4-methoxybenzamide]	258.4 ± 6.4 mmolFe^2+/mmolC	37 ± 7	75 ± 27	≥ 100				9.2 ± 0.6		
COc1ccc(C(=O)Nc2nc3ccc(N)cc3[nH]2)c(O)c1 [Compound 32, N-[5(6)-aminobenzimidazol-2-yl]-2-hydroxy-4-methoxybenzamide]	304.3 ± 6.4 mmolFe^2+/mmolC						80 ± 4	29.5 ± 0.1	50 ± 13	≥ 100
COc1cc([C@@H]2c3cc4c(cc3[C@@H](O[C@@H]3O[C@@H]5CO[C@@H](C)O[C@H]5[C@H](O)[C@H]3O)[C@H]3COC(=O)[C@H]23)OCO4)cc(OC)c1O [Etoposide, reference compound]		5 ± 2	0.1 ± 0.04	1 ± 0.7		1.6 ± 0.4				
